The values below come from patent publication US7247626B2, “Pyrazolopyrimidine derivatives and pharmaceutical compositions containing them” (SmithKline Beecham Corporation, priority 2002, dated 2007).

Structures are written as SMILES.

The experiment deals with HSV-1. Briefly: HSV-1 infection of Vero 76 cells, viral DNA hybridization capture assay. To be noted: Human alphaherpesvirus 1; HSV-1 (MOI=0.001) in Vero 76 cells, 40–48 hours incubation, HSV DNA hybridization with chemiluminescence detection. Type of experiment: cell-based. As to the method:
Vero 76 cells were maintained in MEM with Earle's salts, L-glutamine, 8% FBS (Hyclone, A-1111-L) and 100 units/mL Penicillin-100 μg/mL Streptomycin. For assay conditions, FBS was reduced to 2%. Cells are seeded into 96-well tissue culture plates at a density of 5×10^4 cells/well after being incubated for 45 min at 37° C. in the presence of HSV-1 or HSV-2 (MOI=0.001). Test compounds are added to the wells and the plates are incubated at 37° C. for 40–48 hours. Cell lysates are prepared as follows: media was removed and replaced with 150 μL/well 0.2 N NaOH with 1% Igepal CA 630 or NP-40. Plates were incubated up to 14 days at room temperature in a humidified chamber to prevent evaporation.
For the detection probe, a gel-purified, digoxigenin-labeled, […] PCR fragment of the HSV UL-15 sequence was utilized. PCR conditions included 0.5 μM primers, 180 μM dTTP, 20 μM dUTP-digoxigenin (Boehringer Mannheim 1558706), 200 μM each of dATP, dCTP, and dGTP, 1×PCR Buffer II (Perkin Elmer), 2.5 mM, MgCl2, 0.025 units/μL of AmpliTaq Gold polyerase (Perkin Elmer), and 5 ng a gel-purified HSV DNA per 100 μL Extension conditions were 10 min at 95° C., followed by 30 cycles of 95° C. for 1 min, 55° C. for 30 sec, and 72° C. for 2 min. The amplification was completed with a 10-min incubation at 72° C. Primers were selected to amplify a 728 bp probe spanning a section of the HSV1 UL15 open reading frame (nucleotides 249–977). Single-stranded transcripts were purified with Promega M13 Wizard kits. The final product was mixed 1:1 with a mixture of 6 M GuSCN, 100 mM EDTA and 200 μg/mL herring sperm DNA and stored at 4° C.
The capture DNA plasmid (HSV UL13 region in pUC) was linearized by cutting with Xba I, denatured for 15 min at 95° C. and diluted immediately into Reacti-Bind DNA Coating Solution (Pierce, 17250, diluted 1:1 with TE buffer, pH 8) at 1 ng/μL 75 μl/well were added to Corning (#3922 or 9690) white 96-well plates and incubated at room temperature for at least 4 hrs before washing twice with 300 μL/well 0.2×SSC/0.05% Tween-20 (SSC/T buffer). The plates were then incubated overnight at room temperature with 150 μL/well 0.2 N NaOH, 1% IGEPAL and 10 μg/mL herring sperm DNA.
Twenty-seven (27) μL of cell lysate was combined with 45 μL of hydridization solution (final concentration: 3M GuSCN, 50 mM EDTA, 100 μg/ml salmon sperm DNA, 5× Denhardt's solution, 0.25× APE, and 5 ng of the digoxigenin-labeled detection probe). APE is 1.5 M NH4-acetate, 0.15 M NH4H2phosphate, and 5 mM EDTA adjusted to pH 6.0. Mineral oil (50 μL) was added to prevent evaporation. The hybridization plates were incubated at 95° C. for 10 minutes to denature the DNA, then incubated at 42° C. overnight. The wells were washed 6× with 300 μL/well SSC/T buffer then incubated with 75 μL/well anti-digoxigenin-HRP-conjugated antibody (Boehringer Mannheim 1207733, 1:5000 in TE) for 30 min at room temperature. The wells were washed 6× with 300 μL/well with PBS/0.05% Tween-20 before 75 μL/well SuperSignal LBA substrate (Pierce) was added. The plates were incubated at room temperature for 30 minutes and chemiluminescence was measured in a Wallac Vietor reader.
The following results were obtained for HSV-1.
`Fc1ccc(-c2nn3c(NC4CCCC4)nccc3c2-c2ccnc(NC3CCCC3)n2)cc1` [Example 1, N-Cyclopentyl-3-[2-(cyclopentylamino)pyrimidin-4-yl]-2-(4-fluorophenyl)pyrazolo[1,5-c]pyrimidin-7-amine] had an IC50 of 0.72 µM.

Consider `Fc1ccc(-c2nn3c(NC4CCCC4)nccc3c2-c2ccnc(NC3CC3)n2)cc1` [Example 2, N-Cyclopentyl-3-[2-(cyclopropylamino)pyrimidin-4yl]-2-(4-fluorophenyl)pyrazolo[1,5-c]pyrimidin-7-amine], for which the midpoint of inhibition, the IC50, lay at 5.5 µM.

In the case of `Clc1cccc(-c2nn3cnccc3c2-c2ccnc(NC3CCCC3)n2)c1` [Example 3, 4-[2-(3-Chlorophenyl)pyrazolo[1,5-c]pyrimidin-3-yl]-N-cyclopentylpyrimidin-2-amine], half-maximal inhibition (IC50) was put at 3.9 µM.

`CSc1nccc2c(-c3ccnc(NC4CCCC4)n3)c(-c3cccc(Cl)c3)nn12` [Example 4, 4-[2-(3-Chlorophenyl)-7-(methylthio)pyrazolo[1,5-c]pyrimidin-3-yl]-N-cyclopentylpyrimidin-2-amine] displayed an IC50 of 11.3 µM.

Consider `Clc1cccc(-c2nn3c(NC4CCCC4)nccc3c2-c2ccnc(NC3CCCC3)n2)c1` [Example 5, 2-(3-Chlorophenyl)-N-cyclopentyl-3-[2-(cyclopentylamino)-4-pyrimidinyl]pyrazolo[1,5-c]pyrimidin-7-amine], for which the IC50 turned out to be 0.46 µM.

Regarding `Clc1cccc(-c2nn3c(N4CCOCC4)nccc3c2-c2ccnc(NC3CCCC3)n2)c1` [Example 6, 4-[2-(3-Chlorophenyl)-7-(4-morpholinyl)pyrazolo[1,5-c]pyrimidin-3-yl]-N-cyclopentyl-2-pyrimidinamine], the IC50 stood at 0.2 µM.

For `COCCNc1nccc2c(-c3ccnc(NC4CCCC4)n3)c(-c3cccc(Cl)c3)nn12` [Example 7, 2-(3-Chlorophenyl)-3-[2-(cyclopentylamino)-4-pyrimidinyl]-N-(2-methoxyethyl)pyrazolo[1,5-c]pyrimidin-7-amine], 0.3 µM corresponded to half-maximal inhibition (IC50).

`Oc1nccc2c(-c3ccnc(NC4CCCC4)n3)c(-c3cccc(Cl)c3)nn12` [Example 8, 2-(3-Chlorophenyl)-3-[2-(cyclopentylamino)-4-pyrimidinyl]pyrazolo[1,5-c]pyrimidin-7-ol]: half-maximal inhibition (IC50) was put at 2.5 µM.

Turning to `CSc1nc(NC2CCCC2)n2nc(-c3ccccc3)c(-c3ccnc(F)c3)c2n1` [Example 9, N-Cyclopentyl-8-(2-fluoro-4-pyridinyl)-2-(methylsulfanyl)-7-phenylpyrazolo[1,5-a][1,3,5]triazin-4-amine], the IC50 was found to be 7.1 µM.

In turn, `c1ccc(-c2nn3c(NC4CCCC4)nc(NC4CCCC4)nc3c2-c2ccnc(NC3CCCC3)c2)cc1` [Example 10, N^2,N^4-Dicyclopentyl-8-[2-(cyclopentylamino)-4-pyridinyl]-7-phenylpyrazolo[1,5-a][1,3,5]triazine-2,4-diamine] registered an IC50 of 0.12 µM.

Consider `c1ccc(-c2nn3c(NC4CCCC4)ncnc3c2-c2ccnc(NC3CCCC3)n2)cc1` [Example 11, N-Cyclopentyl-8-[2-(cyclopentylamino)-4-pyrimidinyl]-7-phenylpyrazolo[1,5-a][1,3,5]triazin-4-amine], for which the midpoint of inhibition, the IC50, lay at 6.4 µM.

In turn, `CCCCNc1nccc(-c2c(-c3ccc(F)cc3)nn3c(NC4CCCC4)nccc23)n1` [Example 12, 3-[2-(Butylamino)pyrimidin-4-yl]-N-cyclopentyl-2-(4-fluorophenyl)pyrazolo[1,5-c]pyrimidin-7-amine] came in with an IC50 of 1 µM.

In the case of `Fc1ccc(-c2nn3c(NC4CCCC4)nccc3c2-c2ccnc(Nc3ccccc3)n2)cc1` [Example 13, 3-(2-Anilinopyrimidin-4-yl)-N-cyclopentyl-2-(4-fluorophenyl)pyrazolo-[1,5-c]pyrimidin-7-amine], the IC50 amounted to 1.5 µM.

In turn, `Fc1ccc(-c2nn3c(NC4CCCC4)nccc3c2-c2ccnc(Nc3nc4ccccc4s3)n2)cc1` [Example 14, 3-[2-(1,3-Benzothiazol-2-ylamino)pyrimidin-4-yl]-N-cyclopentyl-2-(4-fluorophenyl)pyrazolo[1,5-c]pyrimidin-7-amine] had an IC50 of more than 40 µM.

In the case of `Cc1csc(Nc2nccc(-c3c(-c4ccc(F)cc4)nn4c(NC5CCCC5)nccc34)n2)n1` [Example 15, N-Cyclopentyl-2-(4-fluorophenyl)-3-{2-[(4-methyl-1,3-thiazol-2-yl)amino]pyrimidin-4-yl}pyrazolo[1,5-c]pyrimidin-7-amine], the IC50 is more than 40 µM.

Turning to `Fc1ccc(-c2nn3c(NC4CCCC4)nccc3c2-c2ccnc(Nc3nc4ccccc4[nH]3)n2)cc1` [Example 16, 3-[2-(1H-Benzimidazol-2-ylamino)pyrimidin-4-yl]-N-cyclopentyl-2-(4-fluorophenyl)pyrazolo[1,5-c]pyrimidin-7-amine], the IC50 is more than 40 µM.

Take `Fc1ccc(CNc2nccc(-c3c(-c4ccc(F)cc4)nn4c(NC5CCCC5)nccc34)n2)cc1` [Example 17, N-Cyclopentyl-3-{2-[(4-fluorobenzyl)amino]pyrimidin-4-yl}-2-(4-fluorophenyl)pyrazolo[1,5-c]pyrimidin-7-amine]: inhibition was half-maximal at 2 µM (IC50).

The compound `Fc1ccc(-c2nn3c(NC4CCCC4)nccc3c2-c2ccnc(NCCc3ccccc3)n2)cc1` [Example 18, N-Cyclopentyl-2-(4-fluorophenyl)-3-{2-[(2-phenylethyl)amino]pyrimidin-4yl}pyrazolo[1,5-c]pyrimidin-7-amine] gave an IC50 of 3.5 µM.

`CC(C)(C)Nc1nccc(-c2c(-c3ccc(F)cc3)nn3c(NC4CCCC4)nccc23)n1` [Example 19, 3-[2-(tert-Butylamino)pyrimidin-4-yl]-N-cyclopentyl-2-(4-fluorophenyl)pyrazolo[1,5-c]pyrimidin-7-amine]: the midpoint of inhibition, the IC50, lay at 3 µM.

With `CSc1nccc2c(-c3ccnc(NC4CCCC4)n3)c(-c3ccc(F)cc3)nn12` [Example 20, N-Cyclopentyl-4-[2-(4-fluorophenyl)-7-(methylsulfanyl)pyrazolo[1,5-c]pyrimidin-3-yl]pyrimidin-2-amine], the IC50 was more than 40 µM.

For the compound `COc1ccc(-c2nn3c(NC4CCCC4)nccc3c2-c2ccnc(NC3CCCC3)n2)cc1` [Example 21, N-Cyclopentyl-3-[2-(cyclopentylamino)pyrimidin-4-yl]-2-(4-methoxyphenyl)pyrazolo[1,5-c]pyrimidin-7-amine], the IC50 turned out to be 0.4 µM.

Compound `Oc1ccc(-c2nn3c(NC4CCCC4)nccc3c2-c2ccnc(NC3CCCC3)n2)cc1` [Example 22, 4-{7-(Cyclopentylamino)-3-[2-(cyclopentylamino)pyrimidin-4-yl]pyrazolo[1,5-c]pyrimidin-2-yl}phenol] yielded an IC50 of 4 µM.

Consider `c1cc(-c2c(-c3ccc(OCC4CC4)cc3)nn3c(NC4CCCC4)nccc23)nc(NC2CCCC2)n1` [Example 23, N-Cyclopentyl-3-[2-(cyclopentylamino)pyrimidin-4-yl]-2-[4-(cyclopropylmethoxy)phenyl]pyrazolo[1,5-c]pyrimidin-7-amine], for which half-maximal inhibition (IC50) was put at 0.5 µM.

The compound `COc1ccc(-c2nn3c(NC4CC4)nccc3c2-c2ccnc(NC3CCCC3)n2)cc1` [Example 24, 3-[2-(Cyclopentylamino)pyrimidin-4-yl]-N-cyclopropyl-2-(4-methoxyphenyl)pyrazolo[1,5-c]pyrimidin-7-amine] came in with an IC50 of 1 µM.

For `CCCCOc1ccc(-c2nn3c(NC4CCCC4)nccc3c2-c2ccnc(NC3CCCC3)n2)cc1` [Example 25, 2-(4-Butoxyphenyl)-N-cyclopentyl-3-[2-(cyclopentylamino)pyrimidin-4-yl]pyrazolo[1,5-c]pyrimidin-7-amine], the IC50 came out at 0.6 µM.

Turning to `CC(C)COc1ccc(-c2nn3c(NC4CCCC4)nccc3c2-c2ccnc(NC3CCCC3)n2)cc1` [Example 26, N-Cyclopentyl-3-[2-(cyclopentylamino)pyrimidin-4-yl]-2-(4-isobutoxyphenyl)pyrazolo[1,5-c]pyrimidin-7-amine], the IC50 was found to be 0.5 µM.
